Laboratory results from ChEMBL document CHEMBL5543121, “Drug Repurposing of ACT001 to Discover Novel Promising Sulfide Prodrugs with Improved Safety and Potent Activity for Neutrophil-Mediated Antifungal Immunotherapy” (J Med Chem, 2024).
The source made the active and inactive calls. The rule behind the calls is not given here.

Experiments:
[1] = Acute toxicity in C57BL/6 mouse assessed as histopathological changes in spleen at 500 mg/kg, po administered as single dose and measured after 14 days; format: organism-based; conditions: in vivo, 336 h, time 14 day
Candida albicans [2] = assay: Induction of neutrophil-mediated antifungal immunity against Candida albicans SC5314 infected in mouse assessed as inhibition of CXCL1 protein expression in bone marrow at 50 to 100 mg/kg, po administered once a day for 3 days by ELISA; format: functional, organism-based; conditions: dose 50-100 mg/kg, time 3.0 day
[3] = Subacute toxicity in C57BL/6 mouse assessed as change in spleen weight at 100 mg/kg, po administered daily for 14 days; format: organism-based; conditions: in vivo, 336 h, time 14 day
[4] = Subacute toxicity in C57BL/6 mouse assessed as change in heart weight at 100 mg/kg, po administered daily for 14 days; format: organism-based; conditions: in vivo, 336 h, time 14 day
[5] = MRT (0 to t) in male Sprague-Dawley rat at 2 mg/kg, iv by LC-MS/MS analysis; format: ADME, organism-based; conditions: in vivo
[6] = Subacute toxicity in C57BL/6 mouse assessed as abnormal behavior at 100 mg/kg, po administered daily for 14 days and measured every day; format: organism-based; conditions: in vivo, 336 h, time 14 day
Neutrophil = assay: Downregulation of phosphorylated STAT3 protein level at Ser727 residue in curdlan induced mouse bone marrow neutrophils at 40 uM measured upto 60 mins by Western blot analysis; format: functional, cell-based
[7] = Cmax in male Sprague-Dawley rat at 2 mg/kg, iv by LC-MS/MS analysis; format: ADME, organism-based; conditions: in vivo
[8] = Oral bioavailability in male Sprague-Dawley rat at 10 mg/kg by LC-MS/MS analysis; format: ADME, organism-based; conditions: in vivo
[9] = Induction of apoptosis in mouse neutrophils assessed as live cells at 20 uM incubated for 16 hrs by Annexin V-FITC/PI staining based flow cytometry analysis (reference value: 46.6%); format: toxicity, cell-based, Neutrophil; conditions: read-out: Activity
Candida albicans [10] = assay: Induction of neutrophil-mediated antifungal immunity against Candida albicans SC5314 infected in mouse assessed as reduction in accumulation of Ly6G positive neutrophils in bone marrow at 50 to 100 mg/kg, po administered once a day for 3 days; format: functional, organism-based; conditions: dose 50-100 mg/kg, time 3.0 day

With `C[C@@]1(O)CC[C@]23O[C@@]2(C)CC[C@@H]2[C@H](OC(=O)[C@H]2CS(=O)(=O)c2c(Cl)cccc2Cl)[C@@H]13` the Activity [1] was “Non-Toxic”, the Activity (Candida albicans [2]) was “Active” and the Activity [3] was “Non-Toxic”. For the same molecule, the Activity [4] was “Non-Toxic”, the MRT last [5] was 15 min and the Activity [6] was “Non-Toxic”. For the same molecule, the Activity (Neutrophil) was “Active”, the Cmax [7] was 175 ng/mL and the bioavailability [8] was 45.1%. For the same molecule, the viability at 16 h, 20 µM [9] was 41.4% and the Activity (Candida albicans [10]) was “Active”.
